Assay: xn = mol fraction of the nth substance listed
Conditions: 101 kPa, Liquid; for viscosity: Capillary tube (Ostwald / Ubbelohde) method; for mass density: Vibrating tube method

CCCCCC(C)O (stereo not given) [2-heptanol] + NC=O
Conditions	mass density, 298.15 K [kg/m3]	mass density, 303.15 K [kg/m3]	mass density, 308.15 K [kg/m3]	mass density, 313.15 K [kg/m3]	viscosity, 298.15 K [mPa·s]	viscosity, 303.15 K [mPa·s]	viscosity, 308.15 K [mPa·s]	viscosity, 313.15 K [mPa·s]
x2 = 0	813.38	809.5	805.72	801.46	5.296	4.315	3.535	2.96
x2 = 0.0819	821.08	817.04	813.18	808.95	5.094	4.157	3.403	2.842
x2 = 0.1603	829.46	825.3	821.41	817.16	4.915	4.021	3.299	2.767
x2 = 0.2402	839.28	835.08	831.16	826.89	4.744	3.905	3.219	2.718
x2 = 0.3508	855.44	851.28	847.38	843.03	4.541	3.773	3.131	2.669
x2 = 0.4402	871.35	867.27	863.34	858.97	4.385	3.673	3.07	2.637
x2 = 0.567	900.02	895.95	891.92	887.52	4.176	3.543	2.997	2.607
x2 = 0.6525	924.85	920.66	916.51	912.11	4.035	3.459	2.952	2.593
x2 = 0.7403	957.01	952.58	948.4	944.03	3.881	3.363	2.896	2.571
x2 = 0.8501	1010.97	1006.37	1002.12	997.89	3.647	3.204	2.792	2.51
x2 = 0.94	1072.96	1068.47	1064.24	1059.95	3.446	3.069	2.701	2.455

CCCC(C)O (stereo not given) [pentan-2-ol] + NC=O
Conditions	mass density, 298.15 K [kg/m3]	mass density, 303.15 K [kg/m3]	mass density, 308.15 K [kg/m3]	mass density, 313.15 K [kg/m3]	viscosity, 298.15 K [mPa·s]	viscosity, 303.15 K [mPa·s]	viscosity, 308.15 K [mPa·s]	viscosity, 313.15 K [mPa·s]
x2 = 0	805.05	800.88	796.89	792.62	3.423	2.834	2.348	1.979
x2 = 0.0823	814.65	810.45	806.51	802.09	3.386	2.811	2.328	1.959
x2 = 0.1639	825.39	821.13	817.19	812.73	3.363	2.801	2.329	1.973
x2 = 0.2393	836.58	832.27	828.29	823.79	3.353	2.811	2.348	2.004
x2 = 0.3541	856.48	852.09	848.01	843.52	3.379	2.864	2.409	2.075
x2 = 0.4444	875.19	870.77	866.59	862.13	3.402	2.911	2.468	2.144
x2 = 0.5612	904.57	900.13	895.87	891.4	3.422	2.964	2.544	2.237
x2 = 0.6497	932.05	927.6	923.33	918.86	3.431	2.989	2.587	2.298
x2 = 0.7431	967.72	963.24	959	954.54	3.42	3.003	2.615	2.343
x2 = 0.8502	1020.4	1016.03	1011.79	1007.32	3.384	3.001	2.628	2.38
x2 = 0.9398	1079.03	1074.66	1070.45	1066.08	3.341	2.988	2.635	2.403

NC=O [formamide] + CC(C)O
Conditions	mass density, 298.15 K [kg/m3]	mass density, 303.15 K [kg/m3]	mass density, 308.15 K [kg/m3]	mass density, 313.15 K [kg/m3]	viscosity, 298.15 K [mPa·s]	viscosity, 303.15 K [mPa·s]	viscosity, 308.15 K [mPa·s]	viscosity, 313.15 K [mPa·s]
x1 = 0.0831	797.37	793.08	788.56	783.84	2.167	1.867	1.623	1.399
x1 = 0.1563	813.03	808.66	803.98	799.2	2.254	1.948	1.688	1.464
x1 = 0.2377	831.8	827.33	822.51	817.62	2.382	2.064	1.791	1.567
x1 = 0.3518	860.85	856.24	851.26	846.25	2.585	2.259	1.974	1.745
x1 = 0.4403	885.89	881.14	876.01	871.03	2.739	2.409	2.115	1.884
x1 = 0.5371	916.34	911.48	906.38	901.3	2.888	2.556	2.256	2.026
x1 = 0.6352	950.91	946.08	940.93	935.92	3.015	2.684	2.371	2.144
x1 = 0.7388	992.47	987.75	982.64	977.69	3.127	2.789	2.464	2.233
x1 = 0.8497	1043.91	1039.54	1034.66	1029.87	3.218	2.878	2.541	2.312
x1 = 0.94	1092.69	1088.45	1083.96	1079.51	3.277	2.939	2.601	2.377
x1 = 1	1129	1125.1	1120.98	1116.85	3.305	2.975	2.64	2.42

NC=O [formamide] + CCC(C)O
Conditions	mass density, 298.15 K [kg/m3]	mass density, 303.15 K [kg/m3]	mass density, 308.15 K [kg/m3]	mass density, 313.15 K [kg/m3]	viscosity, 298.15 K [mPa·s]	viscosity, 303.15 K [mPa·s]	viscosity, 308.15 K [mPa·s]	viscosity, 313.15 K [mPa·s]
x1 = 0.0871	815.72	811.44	807.59	802.69	3.039	2.541	2.137	1.81
x1 = 0.1597	827.26	822.99	819.07	814.17	3.048	2.561	2.158	1.836
x1 = 0.2462	842.51	838.24	834.28	829.39	3.074	2.601	2.206	1.893
x1 = 0.3993	874.46	870.19	866.14	861.25	3.178	2.729	2.337	2.037
x1 = 0.4397	884.15	879.88	875.81	870.92	3.207	2.763	2.372	2.078
x1 = 0.5567	916.06	911.78	907.68	902.82	3.279	2.855	2.477	2.195
x1 = 0.6516	947.04	942.76	938.6	933.86	3.318	2.911	2.54	2.272
x1 = 0.7376	980.23	975.94	971.72	967.08	3.336	2.945	2.582	2.324
x1 = 0.8512	1033.92	1029.63	1025.39	1020.93	3.34	2.973	2.617	2.371
x1 = 0.9309	1080.54	1076.36	1072.19	1067.81	3.329	2.98	2.631	2.398
x1 = 1	1129	1125.1	1120.98	1116.85	3.305	2.975	2.64	2.42

CCCCC(C)O (stereo not given) [2-hexanol] + NC=O
Conditions	mass density, 298.15 K [kg/m3]	mass density, 303.15 K [kg/m3]	mass density, 308.15 K [kg/m3]	mass density, 313.15 K [kg/m3]	viscosity, 298.15 K [mPa·s]	viscosity, 303.15 K [mPa·s]	viscosity, 308.15 K [mPa·s]	viscosity, 313.15 K [mPa·s]
x2 = 0	810.14	806.13	802.06	797.96	4.101	3.411	2.819	2.219
x2 = 0.0818	818.06	814.05	809.79	805.72	4.008	3.334	2.753	2.171
x2 = 0.1638	827.12	823.03	818.79	814.58	3.918	3.276	2.711	2.16
x2 = 0.2392	836.66	832.51	828.24	823.99	3.85	3.23	2.69	2.169
x2 = 0.3529	853.7	849.5	845.26	841.01	3.778	3.176	2.679	2.199
x2 = 0.4439	870.39	866.2	861.95	857.71	3.744	3.187	2.686	2.235
x2 = 0.5613	897.25	893.04	888.76	884.48	3.695	3.185	2.71	2.3
x2 = 0.6496	922.95	918.63	914.3	909.96	3.647	3.169	2.724	2.35
x2 = 0.743	957.42	953.01	948.59	944.27	3.582	3.144	2.726	2.392
x2 = 0.8502	1010.56	1006.13	1001.67	997.41	3.479	3.078	2.695	2.406
x2 = 0.9398	1072.59	1068.37	1063.89	1059.71	3.378	3.021	2.662	2.413
